Assay results published in patent US10556892B2, “Piperazinyl methanone NAAA inhibitors” (priority 2016, dated 2020).
Values after ≈ are worked out from the molar mass of the structure shown. Where two headings read alike, the source gives them in different places. Blank lines part the entries; values can stand above or below the molecule they belong to.

Experiments:
[1] = Aqueous kinetic solubility in PBS pH 7.4; assay type: physicochemical; conditions: pH 7.4, aqueous buffer, kinetic from dmso stock; for solubility at 24 h: PBS
[2] = In vitro metabolic stability, mouse liver microsomes; assay type: in vitro ADME; set-up: dose or concentration left out as unconfirmed
Method: In vitro metabolic stability. Microsomes stability experiments. In vitro incubation with mouse microsomes (NADPH and UDPG system). […] At time zero, cofactors were added. […] The mixture was kept at 37° C. under shaking. Aliquots (50 mL) were taken at various time points and crashed with 0.15 mL of CH3CN spiked with 500 nM warfarin (internal standard). Reference incubation, with microsomes but without cofactors, was kept at 37° C. and sampled at the end of the time course. After vortexing and centrifugation, 3 mL of supernatant were analyzed by LCMS/MS and detected by multiple reaction monitoring (MRM).

[3] = Plasma stability; assay type: in vitro ADME; set-up: dose or concentration left out as unconfirmed; conditions: mouse plasma
[4] = Pharmacokinetics study in mice; assay type: in vivo, mouse; conditions: for Kp: brain and plasma
Method: Compounds were administered orally or intravenously to C57B6/J mice at 3 mg/kg and 3 mg/kg dose, respectively. Vehicle was PEG400/Tween80/saline solution at 15/15/70% in volume, respectively. Three animals per dose were used. […] Control animals treated with vehicle were also included in the study. Animals were sacrificed at time-points and blood and brain samples were collected. […] Brain samples were homogenized in RIPA buffer (150 mM NaCl, 1.0% Triton X-100, 0.5% sodium deoxycholate, 0.1% sodium dodecyl sulfate, 50 mM Tris, pH 8.0) and were then split in two aliquots kept at −80° C. until analysis. An aliquot was used for compound brain level evaluations, following the same procedure described below for plasma samples. The second aliquot was kept for protein content evaluation by bicinchoninic acid (BCA) assay. Samples (plasma and brain homogenate) were thawed in an ice bath, then centrifuged for 20 min and an aliquot of each (50 μL) was transferred into a 96-deepwell plate and added with 150 μl of the extraction solution, consisting of cold acetonitrile spiked with 200 nM of a structural analog of the analyte (14), closely eluting with the analyte itself, as internal standard. After agitation (3 min) the plate was centrifuged at 3000×g for 20 min at 4° C. 80 μl of supernatant was then transferred in a 96-well plate and added with 80 μL of H2O. Standard compound was spiked in net solvent (PBS pH 7.4 added with 20% CH3CN) to prepare a calibration curve over the 1 nM-10 μM range. 3 quality controls samples were also prepared spiking the compound in blank mouse plasma to final 20, 200 and 2000 nM concentrations. Calibrators and QCs were crashed with the same extraction solution used for the plasma samples. Dosing solutions, previously diluted 100000 fold in the net solvent, were also included in the samples and tested. […] Column and UPLC-MS system were purchased from Waters Inc. Milford, USA. Flow rate was set 0.5 mL/min. Eluents were A=H2O and B═CH3CN, both added with 0.1% formic acid. […] The time/concentration profiles measured with the above mentioned system were then analyzed using PK Solutions Excel application (Summit Research Service, USA) to derive the pharmacokinetic data (Maximum observed concentration (Cmax); maximum time (Tmax); cumulative area under curve (AUC) for experimental time points; distribution volume (Vd); systemic clearance (Cl)).

[5] = target: h-AC (Homo sapiens (Human), UniProt Q13510); test: biochemical; conditions: read-out: h-AC inh (%) 30 μM
[6] = 25 °C, Table 10, read-out: Aq. Kinetic Solubility
[7] = phosphate-buffered saline (PBS), 25 °C, Table 11, read-out: Aq. Kinetic Solubility
[8] = pH 7.4, read-out: m-LM stab. t1/2
[9] = 3 mg/kg, CD1 mouse, iv 3 mpk, brain
[10] = 3 mg/kg, CD1 mouse, iv 3 mpk, plasma
[11] = C57B6/J, 10 mg/kg, C57 mouse, po 10 mpk, brain
[12] = C57B6/J, 10 mg/kg, C57 mouse, po 10 mpk, plasma
[13] = C57B6/J, 30 mg/kg, C57 mouse, po 30 mpk, brain
[14] = C57B6/J, 30 mg/kg, C57 mouse, po 30 mpk, plasma
[15] = phosphate-buffered saline (PBS), 25 °C, Table 7
[16] = phosphate-buffered saline (PBS) pH 7.4, 25 °C, Table 9, read-out: Aq. Skin
[17] = phosphate-buffered saline (PBS), 25 °C, Table 9, read-out: Aq. Skin
[18] = phosphate-buffered saline (PBS), 25 °C, Table 10, read-out: Aq. Kinetic Solubility

SMILES: CCCCS(=O)(=O)c1ccccc1C(=O)N1CCN(c2nc3ccc(F)cc3s2)CC1 [CH2CH2CH2CH3]
solubility kinetic [1, 6]: < 1 µM

SMILES: O=C(c1ccccc1S(=O)(=O)CCCO)N1CCN(c2nc3ccc(F)cc3s2)CC1 [CH2CH2CH2OH]
solubility kinetic [1, 6]: 49 µM (≈ 22.7 µg/mL)

SMILES: CCCS(=O)(=O)c1ccccc1C(=O)N1CCN(c2nc3ccc(F)cc3s2)CC1 [CH2CH2CH3]
solubility kinetic [1, 6]: < 1 µM

SMILES: CCS(=O)(=O)c1ccccc1C(=O)N1CCN(c2nc3ccc(C)cc3s2)CC1 [CH3]
solubility kinetic at 24 h [1, 7]: 181 µM (≈ 77.8 µg/mL)

SMILES: CCS(=O)(=O)c1ccccc1C(=O)N1CCN(c2nc3ccc(Cl)cc3s2)CC1 [Cl]
solubility kinetic at 24 h [1, 7]: 2 µM (≈ 0.9 µg/mL)

SMILES: CCS(=O)(=O)c1ccccc1C(=O)N1CCN(c2nc3ccc(F)cc3s2)CC1 [Cmpd 1]
half-life [2, 8]: > 1 h | half-life ([3]; read-out: m-plasma stab. t1/2): > 2 h

SMILES: CCS(=O)(=O)c1ccccc1C(=O)N1CCN(c2nc3c(F)cccc3s2)CC1 [Compound 8]
half-life [2, 8]: 0.267 h | half-life ([3]; read-out: m-plasma stab. t1/2): > 2 h

SMILES: CCS(=O)(=O)c1ccccc1C(=O)N1CCN(c2nc3cccc(F)c3s2)CC1 [Compound 9]
half-life [2, 8]: 0.267 h | half-life ([3]; read-out: m-plasma stab. t1/2): > 2 h | inhibition at 30 µM [5]: -3%

SMILES: CCCS(=O)(=O)c1ccccc1C(=O)N1CCN(c2nc3ccc(F)cc3s2)CC1 [Compound 11]
half-life [2, 8]: > 1 h | half-life ([3]; read-out: m-plasma stab. t1/2): > 2 h | inhibition at 30 µM [5]: 2%

SMILES: O=C(c1ccccc1S(=O)(=O)C1COC1)N1CCN(c2nc3ccc(F)cc3s2)CC1 [Compound 13]
half-life [2, 8]: > 1 h | half-life ([3]; read-out: m-plasma stab. t1/2): > 2 h

SMILES: CCS(=O)(=O)c1ccccc1C(=O)N1CCN(c2nc3ccc(F)cc3s2)C(C)C1 (stereo not shown) [Compound 16]
inhibition at 30 µM [5]: 25%

SMILES: CCS(=O)(=O)c1ccccc1C(=O)N1CCN(c2nc3ccc(F)cc3s2)[C@H](C)C1 [Compound 24]
inhibition at 30 µM [5]: 1%

SMILES: CCS(=O)(=O)c1ccccc1C(=O)N1CCN(c2nc3ccc(F)cc3o2)C[C@@H]1C [Compound 26]
solubility kinetic at 24 h [1, 16]: 6 µM (≈ 2.59 µg/mL) | half-life [2, 8]: > 1 h | half-life ([3]; read-out: m-plasma stab. t1/2): > 2 h | inhibition at 30 µM [5]: -12%

SMILES: CCCS(=O)(=O)c1ccccc1C(=O)N1CCN(c2nc3ccc(F)cc3o2)C[C@@H]1C [Compound 28]
solubility kinetic at 24 h [1, 16]: 45 µM (≈ 20 µg/mL) | half-life ([3]; read-out: m-plasma stab. t1/2): > 2 h | inhibition at 30 µM [5]: -11%

SMILES: CCS(=O)(=O)c1ccccc1C(=O)N1CCN(c2nc3ccccc3s2)CC1 [H]
solubility kinetic at 24 h [1, 7]: 196 µM (≈ 81.4 µg/mL)

SMILES: CCS(=O)(=O)c1ccccc1C(=O)N1CCN(c2nc3ccc(OC)cc3s2)CC1 [OMe]
solubility kinetic at 24 h [1, 7]: 39 µM (≈ 17.4 µg/mL)

SMILES: O=C(c1ccccc1S(=O)(=O)C1CCCC1)N1CCN(c2nc3ccc(F)cc3s2)CC1 [c-pentyl]
solubility kinetic [1, 6]: < 1 µM

SMILES: CC(C)S(=O)(=O)c1ccccc1C(=O)N1CCN(c2nc3ccc(F)cc3s2)CC1 [i-Pr]
solubility kinetic at 24 h [1, 18]: < 1 µM

SMILES: O=C(c1ccccc1S(=O)(=O)C1COC1)N1CCN(c2nc3ccc(F)cc3s2)CC1 [oxetan-3-yl]
solubility kinetic at 24 h [1, 18]: 22 µM (≈ 10.2 µg/mL)

Now from value to molecule:

Cmax [4, 9]: 1610 ng/mL | Tmax [4, 9]: 0.0833 h | half-life [4, 9]: 0.725 h | AUC ([4]; 3 mg/kg, CD1 mouse, iv 3 mpk, brain, read-out: AUC): 867 ng·h/mL | Cmax [4, 10]: 1810 ng/mL | Tmax [4, 10]: 0.0833 h | clearance [4, 10]: 31 mL/min/kg | half-life [4, 10]: 0.893 h | AUC ([4]; 3 mg/kg, CD1 mouse, iv 3 mpk, plasma, read-out: AUC): 1550 ng·h/mL | Vd ([4]; 3 mg/kg, CD1 mouse, iv 3 mpk, plasma, read-out: Vss): 2.4 L/kg | Cmax [4, 11]: 392 ng/mL | Tmax [4, 11]: 0.5 h | half-life [4, 11]: 1.22 h | AUC ([4]; C57B6/J, 10 mg/kg, C57 mouse, po 10 mpk, brain, read-out: AUC): 1340 ng·h/mL | Cmax [4, 12]: 1470 ng/mL | Tmax [4, 12]: 0.5 h | half-life [4, 12]: 1.34 h | AUC ([4]; C57B6/J, 10 mg/kg, C57 mouse, po 10 mpk, plasma, read-out: AUC): 5340 ng·h/mL | Cmax [4, 13]: 2240 ng/mL | Tmax [4, 13]: 0.25 h | half-life [4, 13]: 3.14 h | AUC ([4]; C57B6/J, 30 mg/kg, C57 mouse, po 30 mpk, brain, read-out: AUC): 3230 ng·h/mL | Cmax [4, 14]: 5170 ng/mL | Tmax [4, 14]: 0.25 h | half-life [4, 14]: 1.41 h | AUC ([4]; C57B6/J, 30 mg/kg, C57 mouse, po 30 mpk, plasma, read-out: AUC): 46200 ng·h/mL | Kp ([4]; C57B6/J, 10 mg/kg, C57 mouse, po 10 mpk, read-out: AUCbrain/AUCplasma): 0.251 | Kp ([4]; C57B6/J, 30 mg/kg, C57 mouse, po 30 mpk, read-out: AUCbrain/AUCplasma): 0.07 | Total AUC (AUCplasma + AUCbrain) ([4]; C57 mouse, po 10 mpk): 6683 | % distribution (AUC organ/(AUCplasma + AUCbrain)) ([4]; C57 mouse, po 10 mpk, brain): 20% | % distribution (AUC organ/(AUCplasma + AUCbrain)) ([4]; C57 mouse, po 10 mpk, plasma): 80% | Cl ([4]; C57 mouse, po 10 mpk, plasma): 30.429 mL/min/kg | Vss ([4]; C57 mouse, po 10 mpk, plasma): 3.53 L/kg | Total AUC ([4]; C57 mouse, po 30 mpk): 49447.7 | % distribution ([4]; C57 mouse, po 30 mpk, brain): 7% | % distribution ([4]; C57 mouse, po 30 mpk, plasma): 93% | Cl ([4]; C57 mouse, po 30 mpk, plasma): 10.817 mL/min/kg | Vss ([4]; C57 mouse, po 30 mpk, plasma): 1.32 L/kg | Total AUC ([4]; CD1 mouse, iv 3 mpk): 2421.5 | % distribution ([4]; CD1 mouse, iv 3 mpk, brain): 36% | % distribution ([4]; CD1 mouse, iv 3 mpk, plasma): 64% | Kp ([4]; 3 mg/kg, CD1 mouse, iv 3 mpk, read-out: AUCbrain/AUCplasma): 0.557
SMILES: CCS(=O)(=O)c1ccccc1C(=O)N1CCN(c2nc3ccc(F)cc3s2)C[C@@H]1C [Compound 8, (2-ethylsulfonylphenyl)-[(2S)-4-(6-fluoro-1,3-benzothiazol-2-yl)-2-methyl-piperazin-1-yl]methanone]

solubility at 24 h ([1]; phosphate-buffered saline (PBS), 25 °C, Table 5): 165 µM (≈ 73.8 µg/mL) | solubility at 24 h [1, 15]: 139 ± 1 µM (≈ 62.2 µg/mL) | half-life ([2]; pH 7.4, NADPH, read-out: MLM (NADPH) t1/2): > 1 h | half-life ([3]; Table 5, read-out: Plasma t1/2): > 2 h | Kp ([4]; C57B6/J, mouse, 3 mg/kg, mice, oral administration, read-out: brain-to-plasma ratio): 0.25 | Tmax ([4]; C57B6/J, mouse, plasma, oral 3 mg/kg, mice): 0.5 h | AUC ([4]; C57B6/J, mouse, plasma, oral 3 mg/kg, mice, read-out: AUCplasma): 988 ng·h/mL | Cmax ([4]; C57B6/J, mouse, oral 3 mg/kg, mice, plasma): 613 ng/mL
SMILES: CCS(=O)(=O)c1ccccc1C(=O)N1CCN(c2nc3ccc(F)cc3s2)C[C@@H]1C [Compound 8]

half-life [2, 8]: > 1 h | half-life ([3]; read-out: m-plasma stab. t1/2): > 2 h | inhibition at 30 µM [5]: -3%
SMILES: O=C(c1ccccc1S(=O)(=O)C1CCC1)N1CCN(c2nc3ccc(F)cc3s2)CC1 [Compound 12]

half-life [2, 8]: > 1 h | half-life ([3]; read-out: m-plasma stab. t1/2): > 2 h | inhibition at 30 µM [5]: -1%
SMILES: O=C(c1ccccc1S(=O)(=O)C1CC1)N1CCN(c2nc3ccc(F)cc3s2)CC1 [Compound 22]

solubility kinetic at 24 h [1, 16]: 124 µM (≈ 55 µg/mL) | half-life ([3]; read-out: m-plasma stab. t1/2): > 2 h | inhibition at 30 µM [5]: -12%
SMILES: C[C@H]1CN(c2nc3ccc(F)cc3o2)CCN1C(=O)c1ccccc1S(=O)(=O)C1CC1 [Compound 27]

solubility kinetic at 24 h [1, 17]: 1 µM (≈ 0.466 µg/mL) | half-life [2, 8]: > 1 h | half-life ([3]; read-out: m-plasma stab. t1/2): > 2 h
SMILES: CCS(=O)(=O)c1ccccc1C(=O)N1CCN(c2nc3ccc(F)c(F)c3s2)C[C@@H]1C [Compound 36]

solubility kinetic at 24 h [1, 17]: 8 µM (≈ 3.84 µg/mL) | half-life [2, 8]: > 1 h | half-life ([3]; read-out: m-plasma stab. t1/2): > 2 h | inhibition at 30 µM [5]: 9%
SMILES: CCCS(=O)(=O)c1ccccc1C(=O)N1CCN(c2nc3ccc(F)c(F)c3s2)C[C@@H]1C [Compound 37]

solubility kinetic at 24 h [1, 17]: 14 µM (≈ 6.69 µg/mL) | half-life ([3]; read-out: m-plasma stab. t1/2): > 2 h
SMILES: C[C@H]1CN(c2nc3ccc(F)c(F)c3s2)CCN1C(=O)c1ccccc1S(=O)(=O)C1CC1 [Compound 38]

solubility at 24 h [1, 15]: 76 ± 1 µM (≈ 35.1 µg/mL)
SMILES: CCCS(=O)(=O)c1ccccc1C(=O)N1CCN(c2nc3ccc(F)cc3s2)C[C@@H]1C [Compound 41, [(2S)-4-(6-fluoro-1,3-benzothiazol-2-yl)-2-methyl-piperazin-1-yl]-(2-propylsulfonylphenyl)methanone]

solubility at 24 h [1, 15]: 115 ± 7 µM (≈ 52.9 µg/mL)
SMILES: C[C@H]1CN(c2nc3ccc(F)cc3s2)CCN1C(=O)c1ccccc1S(=O)(=O)C1CC1 [Compound 42, (2-cyclopropylsulfonylphenyl)-[(2S)-4-(6-fluoro-1,3-benzothiazol-2-yl)-2-methyl-piperazin-1-yl]methanone]

solubility kinetic [1, 6]: 5 µM (≈ 2.3 µg/mL)
SMILES: O=C(c1ccccc1S(=O)(=O)C1CCC1)N1CCN(c2nc3ccc(F)cc3s2)CC1 [c-butyl]

solubility kinetic [1, 6]: 10 µM (≈ 4.46 µg/mL)
SMILES: O=C(c1ccccc1S(=O)(=O)C1CC1)N1CCN(c2nc3ccc(F)cc3s2)CC1 [c-propyl]
